Each structure is given as a SMILES string.

In general, IC50 refers to the concentration needed to halve the response being measured.

Data set [1] concerns the target T1, RIPK1 (Homo sapiens, UniProt Q13546).
T1 sequence (Q13546 1-671): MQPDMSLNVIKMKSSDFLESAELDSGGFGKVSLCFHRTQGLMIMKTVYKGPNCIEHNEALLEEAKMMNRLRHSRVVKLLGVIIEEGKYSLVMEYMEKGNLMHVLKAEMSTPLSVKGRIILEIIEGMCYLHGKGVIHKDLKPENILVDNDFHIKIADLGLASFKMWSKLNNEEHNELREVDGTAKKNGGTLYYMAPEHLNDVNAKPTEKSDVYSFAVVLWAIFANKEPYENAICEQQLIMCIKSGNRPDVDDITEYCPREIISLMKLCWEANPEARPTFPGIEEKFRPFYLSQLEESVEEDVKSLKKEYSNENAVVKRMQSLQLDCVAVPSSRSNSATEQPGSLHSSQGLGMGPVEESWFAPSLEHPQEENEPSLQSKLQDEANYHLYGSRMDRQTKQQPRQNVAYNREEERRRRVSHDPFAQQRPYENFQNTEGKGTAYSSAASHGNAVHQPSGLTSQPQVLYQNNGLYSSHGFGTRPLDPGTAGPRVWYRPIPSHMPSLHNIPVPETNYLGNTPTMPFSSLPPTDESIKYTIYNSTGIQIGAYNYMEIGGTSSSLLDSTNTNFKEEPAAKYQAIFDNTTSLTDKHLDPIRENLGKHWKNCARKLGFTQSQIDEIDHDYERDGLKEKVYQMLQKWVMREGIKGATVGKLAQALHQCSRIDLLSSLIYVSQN
Description: RIPK1 ADP-Glo biochemical kinase assay. The settings on record: read-out: RIPK1 ADP-Glo Kinase (IC50). A digest of the protocol: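 RIPK1 at 31 ng/well in Tris pH 7.4 buffer with MgCl2, BSA, DTT and MnCl2, reacted with compounds (duplicate) for 30 min at 30 °C. ADP formed detected by ADP-Glo: 40 min stop/depletion, then 30 min detection reagent at room temperature; luminescence read.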

Data set [2] has as its system L929 cells. Description: L929 cell necroptosis assay (TNFa + zVAD, CellTiter-Glo recovery). It is filed as cell-based, murine. The settings on record: Mus musculus, L929, 18 h, TNFa 2 ng/mL + zVAD-fmk, read-out: L929-CTG-recovery, L929, TNFa + zVAD (IC50). A digest of the protocol:
(§1)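 Human U937 (50K/well, 60 uM zVAD-fmk medium, plated same day) or murine L929 (10K/well, plated 18 h, then 40 uM zVAD-fmk medium) were grown in RPMI with 10% FBS. Both were pretreated with compound for 1 h at 37 °C before TNFa at 2 ng/mL final. Viability was read by CellTiter-Glo luminescence after 18 h.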
On the technique in general: ATP-based viability assays read luminescence as a measure of living cells.

A short description of data set [3]: Brain penetration: free brain/plasma ratio in in vivo pharmacokinetic studies. The conditions noted are these: brain and plasma (unbound); in vivo pharmacokinetic studies in rodents; read-out: free brain/plasma ratio (Bu/Pu). The method, then: Female C57BL/6 mice are randomly grouped and weighed on Day −1. On the day of the study (Day 0), mice are administered vehicle or test article by oral gavage. Fifteen minutes after oral administration of test agents, each mouse is administered an intraperitoneal (IP) injection of solution containing recombinant human tumor necrosis factor alpha (TNF-a, 25.0 μg) and zVAD-FMK (200 μg). Body temperature is measured at 0 hours (before IP injections) and every hour via rectal probe temperature measuring device. Three (3) hours after IP injections of TNF-a and zVAD/FMK, mice are euthanized by CO2 asphyxiation and blood is collected via cardiac puncture. Serum and plasma are harvested for determination of cytokine and compound levels, respectively. Separate groups of mice (satellite mice) are included for the determination of compound levels in plasma at the time of administration of TNFa/zVAD-FMK. […] Brain penetration may be assessed by evaluating free brain/plasma ratio (Bu/Pu) as measured in vivo pharmacokinetic studies in rodents. […] In this method, the passive membrane permeability (Papp) and the P-gp (P-glycoprotein) substrate efflux potential are determined using a MDCKII-MDR1 cell line as an in vitro model of the effective permeability of a compound through the BBB.

The test system of data set [4] is U937 cells. In words: U937 cell necroptosis assay (TNFa + zVAD, CellTiter-Glo recovery). It counts as cell-based. The settings on record: Homo sapiens, U-937, 18 h, TNFa 2 ng/mL + zVAD-fmk, read-out: U937 Zvad TNF CTG Recovery, U937, TNFa + zVAD (IC50). In a few lines:
as §1

`Cc1cccc(Cc2cnn(C(=O)N[C@H]3CCc4ccc(C#CC5(O)COC5)cc4N(C)C3=O)c2)n1` [I-120, (S)—N-(8-((3-Hydroxyoxetan-3-yl)ethynyl)-1-methyl-2-oxo-2,3,4,5-tetrahydro-1H-benzo[b]azepin-3-yl)-4-((6-methylpyridin-2-yl)methyl)-1H-pyrazole-1-carboxamide]: the IC50 in data set [1] turned out to be 17.2 nM; in data set [2] it was 233 nM; in data set [4] it was 9.5 nM. In addition, in data set [3], the Kp,uu (unbound brain/plasma ratio) worked out at 11.
On the same counts, the results for `Cc1cccc(Cc2cnn(C(=O)N[C@H]3COc4ccc(C#CC5CCOCC5)cc4N(C)C3=O)c2)n1` [I-104, (S)—N-(5-Methyl-4-oxo-7-((tetrahydro-2H-pyran-4-yl)ethynyl)-2,3,4,5-tetrahydrobenzo[b][1,4]oxazepin-3-yl)-4-((6-methylpyridin-2-yl)methyl)-1H-pyrazole-1-carboxamide] are 16.4 nM, 190 nM, 7.3 nM and 1.7.
